Data as given in the supplement of paper PMC10307832.

Experiments:
BI-2536 = compound: CC[C@@H]1C(=O)N(C)c2cnc(Nc3ccc(C(=O)NC4CCN(C)CC4)cc3OC)nc2N1C1CCCC1 [BI-2536]; assay: relative viability (nuclei count vs DMSO), 5 days (fraction); higher = more cells survive
Procedure, shortened: (§1)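 Following overnight incubation at 37 °C, lung cancer cell lines in 1536-well plates were pinned with five library-drug doses (not always all listed) in √10 steps on vehicle-anchored plates. The cells then spent 5 days without medium change before a combined fix, permeabilisation and Hoechst stain, 4× imaging and MetaXpress nuclear counts. Viability is the treated-to-vehicle ratio of nuclei, taken as the median across plates. Only plates with control CV below 25% and at least one doubling passed.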

NPK76-II-72-1 = compound: CC1CC(=O)N(C2=CN=C(N=C2N1C3CCCC3)NC4=C(C=C(C=C4)C(=O)NC5CCN(CC5)C)OC)C [NPK76-II-72-1]; assay: as above
Procedure, shortened: as §1

| Cell Line | relative viability (BI-2536; 0.01 µM) | relative viability (BI-2536; 0.03162 µM) | relative viability (BI-2536; 0.1 µM) | relative viability (BI-2536; 0.3162 µM) | relative viability (BI-2536; 1 µM) | relative viability (NPK76-II-72-1; 0.01 µM) | relative viability (NPK76-II-72-1; 0.03162 µM) | relative viability (NPK76-II-72-1; 0.1 µM) | relative viability (NPK76-II-72-1; 0.3162 µM) | relative viability (NPK76-II-72-1; 1 µM) |
| --- | --- | --- | --- | --- | --- | --- | --- | --- | --- | --- |
| 201T | 0.996 | 0.987 | 0.977 | 0.391 | 0.255 | 0.973 | 1 | 0.958 | 0.988 | 1.03 |
| A549 | 0.987 | 0.936 | 0.628 | 0.0475 | 0.0473 | 0.937 | 1.05 | 1.01 | 1 | 1.03 |
| A-427 | 0.996 | 0.961 | 0.589 | 0.137 | 0.151 | 0.943 | 1.07 | 0.984 | 0.929 | 0.977 |
| ABC-1 | 0.892 | 0.879 | 0.212 | 0.395 | 0.265 | 0.759 | 0.886 | 0.686 | 0.955 | 0.855 |
| BEN | 0.948 | 0.982 | 0.671 | 0.386 | 0.355 | 0.941 | 0.928 | 0.903 | 0.904 | 0.996 |
| CAL-12T | 0.882 | 0.849 | 0.718 | 0.159 | 0.198 | 0.933 | 1.02 | 1.01 | 0.927 | 1.15 |
| COR-L23 | 1.09 | 1.13 | 0.333 | 0.136 | 0.135 | 0.977 | 1.06 | 0.998 | 1.01 | 1.01 |
| COR-L 105 | 0.904 | 0.909 | 0.665 | 0.252 | 0.343 | 0.976 | 0.932 | 0.977 | 0.878 | 0.965 |
| Calu-6 | 1.02 | 0.861 | 0.51 | 0.117 | 0.111 | 0.988 | 1.05 | 1.03 | 0.954 | 0.996 |
| ChaGo-K-1 | 0.911 | 0.965 | 0.674 | 0.239 | 0.197 | 0.985 | 0.951 | 1.04 | 0.941 | 0.921 |
| EBC-1 | 1.04 | 0.804 | 0.432 | 0.224 | 0.202 | 0.917 | 1.02 | 0.94 | 0.984 | 1.07 |
| EKVX | 0.966 | 1.05 | 0.958 | 0.254 | 0.165 | 0.946 | 0.938 | 0.953 | 0.713 | 1.21 |
| EMC-BAC-2 | 0.979 | 1.03 | 0.505 | 0.238 | 0.246 | 0.916 | 0.96 | 0.981 | 0.921 | 1.05 |
| EPLC-272H | 0.852 | 0.707 | 0.117 | 0.26 | 0.0971 | 0.96 | 0.951 | 1.06 | 0.86 | 1.07 |
| H3255 | 0.86 | 0.872 | 0.573 | 0.257 | 0.29 | 0.918 | 0.938 | 0.995 | 0.72 | 1.1 |
| HARA | 1.01 | 1.15 | 0.823 | 0.141 | 0.159 | 0.922 | 0.987 | 0.845 | 0.924 | 1.05 |
| HCC-15 | 1.04 | 0.925 | 0.466 | 0.15 | 0.146 | 0.939 | 1.1 | 0.988 | 0.93 | 1.01 |

| Cell Line | relative viability (BI-2536; 0.01 µM) | relative viability (BI-2536; 0.03162 µM) | relative viability (BI-2536; 0.1 µM) | relative viability (BI-2536; 0.3162 µM) | relative viability (BI-2536; 1 µM) | relative viability (NPK76-II-72-1; 0.01 µM) | relative viability (NPK76-II-72-1; 0.03162 µM) | relative viability (NPK76-II-72-1; 0.1 µM) | relative viability (NPK76-II-72-1; 0.3162 µM) | relative viability (NPK76-II-72-1; 1 µM) |
| --- | --- | --- | --- | --- | --- | --- | --- | --- | --- | --- |
| HCC-44 | 1.01 | 0.996 | 0.31 | 0.155 | 0.129 | 1 | 1.04 | 0.96 | 0.969 | 1.07 |
| HCC-78 | 0.972 | 1.04 | 0.831 | 0.579 | 0.247 | 0.881 | 0.903 | 0.931 | 0.976 | 1 |
| HCC-366 | 1.04 | 1.06 | 0.677 | 0.0316 | 0.0344 | 0.994 | 0.999 | 1 | 1.09 | 0.97 |
| HCC-827 | 1.05 | 1.03 | 0.927 | 0.441 | 0.284 | 1.04 | 1.04 | 1.07 | 1.03 | 1.06 |
| HOP-62 | 1 | 1.07 | 0.775 | 0.194 | 0.155 | 0.935 | 1.02 | 0.937 | 0.875 | 1.05 |
| IA-LM | 0.954 | 0.912 | 0.649 | 0.0924 | 0.061 | 0.871 | 0.836 | 0.919 | 0.842 | 1.14 |
| LC-2-ad | 0.954 | 0.703 | 0.222 | 0.211 | 0.215 | 1.01 | 0.996 | 0.952 | 1 | 0.978 |
| LCLC-97TM1 | 0.969 | 1.01 | 0.813 | 0.129 | 0.0948 | 1.07 | 1.03 | 0.959 | 0.752 | 1.13 |
| LCLC-103H | 0.997 | 1.05 | 0.961 | 0.491 | 0.197 | 0.984 | 1.01 | 0.896 | 1.05 | 0.952 |
| LK-2 | 0.832 | 0.887 | 0.623 | 0.128 | 0.207 | 0.961 | 0.912 | 0.962 | 0.832 | 1.01 |
| LOU-NH91 | 1.03 | 0.924 | 0.824 | 0.319 | 0.271 | 0.952 | 0.991 | 0.876 | 0.793 | 1.09 |
| LU99A | 0.939 | 0.815 | 0.449 | 0.245 | 0.214 | 0.882 | 0.946 | 0.945 | 0.875 | 1.02 |
| LXF-289 | 1.04 | 0.977 | 0.651 | 0.0735 | 0.0855 | 0.954 | 1.02 | 0.968 | 1.04 | 0.988 |
| NCI-H23 | 0.926 | 0.797 | 0.179 | 0.141 | 0.17 | 0.944 | 1.06 | 0.854 | 0.957 | 1.11 |
| NCI-H322M | 0.99 | 0.889 | 0.725 | 0.497 | 0.298 | 0.908 | 0.997 | 1.01 | 0.999 | 1.01 |
| NCI-H358 | 0.981 | 0.744 | 0.204 | 0.118 | 0.136 | 0.9 | 0.976 | 1.01 | – | 1.05 |
| NCI-H441 | 0.874 | 0.503 | 0.281 | 0.191 | 0.224 | 1.04 | 1.12 | 1.03 | 0.914 | 1.04 |
